Legend:
[1] = system: mice; test: mouse light/dark box habituation test; format: in vivo; conditions: 0.25 mg/kg
Procedure: (§1) A test carried out using the mouse light/dark box and the rat T-maze reinforced alternation task.
On repeated exposure to the light/dark box mice habituate by moving more rapidly from the light to the dark side. The habituation occurs over a 4 to 6 day period, with a reduction in latency of movement from about 14 sec to 2 to 4 sec by the 4th day of the test.
The compounds was administered at a dose of 0.00001 mg/kg SC once daily.
The days (1-6) are along the X axis and the time in seconds is along the Y axis (latency white to black) and Day 6 scopolamine was 0.25.
∘ p <0.001 indicates improved habituation, comparison is with 1 day.
* p <0.05 to p <0.001 is improved performance, compared to control.
+ p <0.001 is scopolamine impairment.
Δ p <0.001 is inhibition of scopolamine impairment.

[2] = system: rat; test: rat T-maze reinforced alternation task; format: in vivo; conditions: twice daily 0.25 mg/kg
Procedure: as §1
The X axis is the day and the Y axis is the percent correct responses.
The number of mice tested was six.
⬭ - - - ⬭ is the control vehicle.
⬬ - - - ⬬ is scopolamine at 0.25 mg/kg IP BID.

CN1[C@@H]2C[C@@H](OC(=O)[C@H](CO)c3ccccc3)C[C@H]1[C@@H]1O[C@@H]12 [scopolamine]
effect of scopolamine on habituation performance [1]: impairment of performance | effect of scopolamine on task performance [2]: deficit
